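Five compound concentrations were applied to cells in 96-well plates for 48 hours; endpoints were derived by simple linear interpolation of the resulting dose-response curve. At the GI50, growth is halved. TGI denotes the concentration required for complete inhibition of growth.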
How the values were obtained:
Assay in all cases: NCI-60 cell line screen, 48 h
MDA-MB-231 breast = system: MDA-MB-231 breast
HOP-62 NSCLC = system: HOP-62 NSCLC
M14 melanoma = system: M14 melanoma
OVCAR-5 ovarian = system: OVCAR-5 ovarian
KM12 colon = system: KM12 colon
HOP-92 NSCLC = system: HOP-92 NSCLC
UO-31 renal = system: UO-31 renal
ACHN renal = system: ACHN renal
OVCAR-4 ovarian = system: OVCAR-4 ovarian
K-562 leukemia = system: K-562 leukemia
786-0 renal = system: 786-0 renal
U251 CNS = system: U251 CNS
MALME-3M melanoma = system: MALME-3M melanoma
RPMI-8226 leukemia = system: RPMI-8226 leukemia
SK-MEL-5 melanoma = system: SK-MEL-5 melanoma
OVCAR-8 ovarian = system: OVCAR-8 ovarian
HCC-2998 colon = system: HCC-2998 colon
HCT-116 colon = system: HCT-116 colon
HS 578T breast = system: HS 578T breast
HCT-15 colon = system: HCT-15 colon
UACC-62 melanoma = system: UACC-62 melanoma
SK-OV-3 ovarian = system: SK-OV-3 ovarian
TK-10 renal = system: TK-10 renal
CAKI-1 renal = system: CAKI-1 renal
SF-539 CNS = system: SF-539 CNS
NCI-H226 lung = system: NCI-H226 lung
SK-MEL-2 melanoma = system: SK-MEL-2 melanoma
SF-268 CNS = system: SF-268 CNS
NCI-H23 lung = system: NCI-H23 lung
HL-60(TB) leukemia = system: HL-60(TB) leukemia
EKVX NSCLC = system: EKVX NSCLC
PC-3 prostate = system: PC-3 prostate
CCRF-CEM leukemia = system: CCRF-CEM leukemia
MDA-MB-435 = system: MDA-MB-435
LOX IMVI melanoma = system: LOX IMVI melanoma
NCI-H522 lung = system: NCI-H522 lung
A498 renal = system: A498 renal
DU-145 prostate = system: DU-145 prostate
IGROV1 ovarian = system: IGROV1 ovarian
A549 NSCLC = system: A549 NSCLC
NCI/ADR-RES ovarian = system: NCI/ADR-RES ovarian
T-47D breast = system: T-47D breast
MCF7 breast = system: MCF7 breast
UACC-257 melanoma = system: UACC-257 melanoma
SF-295 CNS = system: SF-295 CNS
SW-620 colon = system: SW-620 colon
SN12C renal = system: SN12C renal
COLO 205 colon = system: COLO 205 colon
NCI-H460 lung = system: NCI-H460 lung
RXF 393 renal = system: RXF 393 renal
BT-549 breast = system: BT-549 breast
OVCAR-3 ovarian = system: OVCAR-3 ovarian
HT29 colon = system: HT29 colon
MOLT-4 leukemia = system: MOLT-4 leukemia
SK-MEL-28 melanoma = system: SK-MEL-28 melanoma

**Q.** What does the source list for `Nc1ccccc1C#C/C=C\C#Cc1ccc(F)cc1F`?
**A.** GI50 (MDA-MB-231 breast): 15.1 µM; TGI (MDA-MB-231 breast): 33.3 µM; GI50 (HOP-62 NSCLC): 16 µM; TGI (HOP-62 NSCLC): 30 µM; GI50 (M14 melanoma): 16.5 µM; TGI (M14 melanoma): 32 µM; GI50 (OVCAR-5 ovarian): 14.8 µM; TGI (OVCAR-5 ovarian): 29.6 µM; GI50 (KM12 colon): 4.17 µM; TGI (KM12 colon): 19.6 µM; GI50 (HOP-92 NSCLC): 18.3 µM; TGI (HOP-92 NSCLC): 59.7 µM; GI50 (UO-31 renal): 13.1 µM; TGI (UO-31 renal): 33 µM; GI50 (ACHN renal): 16.6 µM; TGI (ACHN renal): 32.2 µM; GI50 (OVCAR-4 ovarian): 37.1 µM; TGI (OVCAR-4 ovarian): > 100 µM; GI50 (K-562 leukemia): 4.98 µM; TGI (K-562 leukemia): > 100 µM; GI50 (786-0 renal): 14.7 µM; TGI (786-0 renal): 28.7 µM; GI50 (U251 CNS): 13.7 µM; TGI (U251 CNS): 26.5 µM; GI50 (MALME-3M melanoma): 6.11 µM; TGI (MALME-3M melanoma): 22.5 µM; GI50 (RPMI-8226 leukemia): 1.36 µM; TGI (RPMI-8226 leukemia): 34.3 µM; GI50 (SK-MEL-5 melanoma): 9.69 µM; TGI (SK-MEL-5 melanoma): 25.3 µM; GI50 (OVCAR-8 ovarian): 25.2 µM; TGI (OVCAR-8 ovarian): 84.3 µM; GI50 (HCC-2998 colon): 2.57 µM; TGI (HCC-2998 colon): 12.6 µM; GI50 (HCT-116 colon): 15.4 µM; TGI (HCT-116 colon): 31.4 µM; GI50 (HS 578T breast): 13.2 µM; TGI (HS 578T breast): 30.5 µM; GI50 (HCT-15 colon): 14.1 µM; TGI (HCT-15 colon): 31.7 µM; GI50 (UACC-62 melanoma): 14.6 µM; TGI (UACC-62 melanoma): 32.5 µM; GI50 (SK-OV-3 ovarian): 27.4 µM; TGI (SK-OV-3 ovarian): 66.7 µM; GI50 (TK-10 renal): 11.2 µM; TGI (TK-10 renal): 30.4 µM; GI50 (CAKI-1 renal): 3.13 µM; TGI (CAKI-1 renal): 14.7 µM; GI50 (SF-539 CNS): 7.22 µM; TGI (SF-539 CNS): 22.4 µM; GI50 (NCI-H226 lung): 17.3 µM; TGI (NCI-H226 lung): 35.8 µM; GI50 (SK-MEL-2 melanoma): 23 µM; TGI (SK-MEL-2 melanoma): 58.1 µM; GI50 (SF-268 CNS): 5.95 µM; TGI (SF-268 CNS): 25.4 µM; GI50 (NCI-H23 lung): 13.3 µM; TGI (NCI-H23 lung): 32.2 µM; GI50 (HL-60(TB) leukemia): 21.8 µM; TGI (HL-60(TB) leukemia): > 100 µM; GI50 (EKVX NSCLC): 19.4 µM; TGI (EKVX NSCLC): 57.8 µM; GI50 (PC-3 prostate): 10.7 µM; TGI (PC-3 prostate): 56.5 µM; GI50 (CCRF-CEM leukemia): 0.444 µM; TGI (CCRF-CEM leukemia): 10.9 µM; GI50 (MDA-MB-435): 2.38 µM; TGI (MDA-MB-435): 6.19 µM; GI50 (LOX IMVI melanoma): 6.41 µM; TGI (LOX IMVI melanoma): 19.9 µM; GI50 (NCI-H522 lung): 13.8 µM; TGI (NCI-H522 lung): 35.2 µM; GI50 (A498 renal): 15.8 µM; TGI (A498 renal): 31.9 µM; GI50 (DU-145 prostate): 12.5 µM; TGI (DU-145 prostate): 33.8 µM; GI50 (IGROV1 ovarian): 12.7 µM; TGI (IGROV1 ovarian): 40.7 µM; GI50 (A549 NSCLC): 16.8 µM; TGI (A549 NSCLC): 67.7 µM; GI50 (NCI/ADR-RES ovarian): 6.22 µM; TGI (NCI/ADR-RES ovarian): 21.1 µM; GI50 (T-47D breast): 26 µM; TGI (T-47D breast): > 100 µM; GI50 (MCF7 breast): 6.28 µM; TGI (MCF7 breast): 38.5 µM; GI50 (UACC-257 melanoma): 19.5 µM; TGI (UACC-257 melanoma): 50 µM; GI50 (SF-295 CNS): 7.12 µM; TGI (SF-295 CNS): 24.8 µM; GI50 (SW-620 colon): 36.9 µM; TGI (SW-620 colon): > 100 µM; GI50 (SN12C renal): 12.3 µM; TGI (SN12C renal): 27.7 µM; GI50 (COLO 205 colon): 29.5 µM; TGI (COLO 205 colon): 82 µM; GI50 (NCI-H460 lung): 12.9 µM; TGI (NCI-H460 lung): 28.7 µM; GI50 (RXF 393 renal): 18.4 µM; TGI (RXF 393 renal): 43.2 µM; GI50 (BT-549 breast): 12.1 µM; TGI (BT-549 breast): 27.5 µM; GI50 (OVCAR-3 ovarian): 6.2 µM; TGI (OVCAR-3 ovarian): 21.4 µM; GI50 (HT29 colon): 31.1 µM; TGI (HT29 colon): > 100 µM; GI50 (MOLT-4 leukemia): 3.05 µM; TGI (MOLT-4 leukemia): > 100 µM; GI50 (SK-MEL-28 melanoma): 27 µM; TGI (SK-MEL-28 melanoma): 90.1 µM

Source: PubChem BioAssay (NCI)
